From US20230257396A1, “MACROCYCLES AND THEIR USE” (BLOSSOMHILL THERAPEUTICS, INC., priority 2020, published 2023)

Key:
Test in all cases: KINOMEscan kinase binding assay (Eurofins/DiscoveRx), % Ctrl
[1] = biological target: T1, kinases (Homo sapiens, UniProt P00519, E255K); conditions: 1 μM; ABL1(E255K)-phosphorylated
T1 construct: purchased Eurofins/DiscoveRx; host or cells: E. coli BL21-derived host (T7 phage display) for most kinases; HEK-293 for the rest
Outline: (§1)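 Read-out is qPCR of kinase eluted from ligand-coated streptavidin beads after 1 h room-temperature competition with test compound. Values are % Ctrl at the tested concentration, lower meaning tighter binding.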

[2] = biological target: T2, kinases (Homo sapiens, UniProt P00519, H396P); conditions: 1 μM
T2 construct: purchased Eurofins/DiscoveRx; host or cells: E. coli BL21-derived host (T7 phage display) for most kinases; HEK-293 for the rest
Outline: as §1

[3] = biological target: T3, kinases (Homo sapiens, UniProt P00519, M351T); conditions: 1 μM; ABL1(M351T)-phosphorylated
T3 construct: purchased Eurofins/DiscoveRx; host or cells: E. coli BL21-derived host (T7 phage display) for most kinases; HEK-293 for the rest
Outline: as §1

[4] = biological target: T4, kinases (Homo sapiens, UniProt P00519, Q252H); conditions: 1 μM
T4 construct: purchased Eurofins/DiscoveRx; host or cells: E. coli BL21-derived host (T7 phage display) for most kinases; HEK-293 for the rest
Outline: as §1

[5] = biological target: T5, kinases (Homo sapiens, UniProt P00519, Y253F); conditions: 1 μM; ABL1(Y253F)-phosphorylated
T5 construct: purchased Eurofins/DiscoveRx; host or cells: E. coli BL21-derived host (T7 phage display) for most kinases; HEK-293 for the rest
Outline: as §1

[6] = biological target: T6, kinases (Homo sapiens, UniProt P00533); conditions: 1 μM; EGFR
T6 construct: purchased Eurofins/DiscoveRx; host or cells: E. coli BL21-derived host (T7 phage display) for most kinases; HEK-293 for the rest
Outline: as §1

[7] = biological target: T7, kinases (Homo sapiens, UniProt P00533, G719S); conditions: 1 μM; EGFR(G719S)
T7 construct: purchased Eurofins/DiscoveRx; host or cells: E. coli BL21-derived host (T7 phage display) for most kinases; HEK-293 for the rest
Outline: as §1

[8] = biological target: T8, kinases (Homo sapiens, UniProt P00533, L861Q); conditions: 1 μM; EGFR(L861Q)
T8 construct: purchased Eurofins/DiscoveRx; host or cells: E. coli BL21-derived host (T7 phage display) for most kinases; HEK-293 for the rest
Outline: as §1

[9] = biological target: T9, kinases (Homo sapiens, UniProt P00533, T790M); conditions: 1 μM; EGFR(T790M)
T9 construct: purchased Eurofins/DiscoveRx; host or cells: E. coli BL21-derived host (T7 phage display) for most kinases; HEK-293 for the rest
Outline: as §1

[10] = biological target: T10, kinases (Homo sapiens, UniProt P07949); conditions: 1 μM; RET
T10 construct: purchased Eurofins/DiscoveRx; host or cells: E. coli BL21-derived host (T7 phage display) for most kinases; HEK-293 for the rest
Outline: as §1

[11] = biological target: T11, kinases (Homo sapiens, UniProt P07949, V804L); conditions: 1 μM; RET(V804L)
T11 construct: purchased Eurofins/DiscoveRx; host or cells: E. coli BL21-derived host (T7 phage display) for most kinases; HEK-293 for the rest
Outline: as §1

[12] = biological target: T12, kinases (Homo sapiens, UniProt P10721, D816H); conditions: 1 μM; KIT(D816H)
T12 construct: purchased Eurofins/DiscoveRx; host or cells: E. coli BL21-derived host (T7 phage display) for most kinases; HEK-293 for the rest
Outline: as §1

[13] = biological target: T13, kinases (Homo sapiens, UniProt P10721, L576P); conditions: 1 μM; KIT(L576P)
T13 construct: purchased Eurofins/DiscoveRx; host or cells: E. coli BL21-derived host (T7 phage display) for most kinases; HEK-293 for the rest
Outline: as §1

[14] = biological target: T14, kinases (Homo sapiens, UniProt P36888, D835V); conditions: 1 μM; FLT3(D835V)
T14 construct: purchased Eurofins/DiscoveRx; host or cells: E. coli BL21-derived host (T7 phage display) for most kinases; HEK-293 for the rest
T14 sequence (P36888 27-993 D835V): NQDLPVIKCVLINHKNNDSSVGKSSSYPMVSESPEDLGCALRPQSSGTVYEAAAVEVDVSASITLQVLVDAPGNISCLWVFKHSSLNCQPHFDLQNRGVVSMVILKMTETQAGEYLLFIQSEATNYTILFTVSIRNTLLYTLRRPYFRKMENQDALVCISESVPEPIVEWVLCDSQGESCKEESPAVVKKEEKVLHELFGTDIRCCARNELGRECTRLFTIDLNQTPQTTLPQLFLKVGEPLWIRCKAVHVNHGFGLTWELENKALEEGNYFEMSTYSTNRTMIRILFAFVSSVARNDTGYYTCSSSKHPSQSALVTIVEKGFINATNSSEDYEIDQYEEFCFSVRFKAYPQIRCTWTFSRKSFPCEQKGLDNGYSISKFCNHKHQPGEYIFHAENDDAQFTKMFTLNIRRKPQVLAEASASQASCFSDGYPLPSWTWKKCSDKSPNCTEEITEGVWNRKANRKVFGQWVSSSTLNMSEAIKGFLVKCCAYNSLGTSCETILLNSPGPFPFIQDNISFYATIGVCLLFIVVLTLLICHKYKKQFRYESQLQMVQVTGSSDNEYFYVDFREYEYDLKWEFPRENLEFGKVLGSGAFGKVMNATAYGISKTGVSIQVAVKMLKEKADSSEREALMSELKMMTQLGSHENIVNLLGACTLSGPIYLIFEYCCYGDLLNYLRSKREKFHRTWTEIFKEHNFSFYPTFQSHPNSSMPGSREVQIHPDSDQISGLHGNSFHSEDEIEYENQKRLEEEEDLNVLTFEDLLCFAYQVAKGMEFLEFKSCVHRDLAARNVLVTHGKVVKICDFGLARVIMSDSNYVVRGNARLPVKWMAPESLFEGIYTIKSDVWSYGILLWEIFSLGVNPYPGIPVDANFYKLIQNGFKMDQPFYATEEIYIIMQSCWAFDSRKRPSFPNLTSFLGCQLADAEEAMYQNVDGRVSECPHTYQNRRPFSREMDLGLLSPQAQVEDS
Outline: as §1

[15] = biological target: T15, kinases (Homo sapiens, UniProt P42684); conditions: 1 μM; ABL2
T15 construct: purchased Eurofins/DiscoveRx; host or cells: E. coli BL21-derived host (T7 phage display) for most kinases; HEK-293 for the rest
Outline: as §1

T12 sequence (P10721 26-976 D816H): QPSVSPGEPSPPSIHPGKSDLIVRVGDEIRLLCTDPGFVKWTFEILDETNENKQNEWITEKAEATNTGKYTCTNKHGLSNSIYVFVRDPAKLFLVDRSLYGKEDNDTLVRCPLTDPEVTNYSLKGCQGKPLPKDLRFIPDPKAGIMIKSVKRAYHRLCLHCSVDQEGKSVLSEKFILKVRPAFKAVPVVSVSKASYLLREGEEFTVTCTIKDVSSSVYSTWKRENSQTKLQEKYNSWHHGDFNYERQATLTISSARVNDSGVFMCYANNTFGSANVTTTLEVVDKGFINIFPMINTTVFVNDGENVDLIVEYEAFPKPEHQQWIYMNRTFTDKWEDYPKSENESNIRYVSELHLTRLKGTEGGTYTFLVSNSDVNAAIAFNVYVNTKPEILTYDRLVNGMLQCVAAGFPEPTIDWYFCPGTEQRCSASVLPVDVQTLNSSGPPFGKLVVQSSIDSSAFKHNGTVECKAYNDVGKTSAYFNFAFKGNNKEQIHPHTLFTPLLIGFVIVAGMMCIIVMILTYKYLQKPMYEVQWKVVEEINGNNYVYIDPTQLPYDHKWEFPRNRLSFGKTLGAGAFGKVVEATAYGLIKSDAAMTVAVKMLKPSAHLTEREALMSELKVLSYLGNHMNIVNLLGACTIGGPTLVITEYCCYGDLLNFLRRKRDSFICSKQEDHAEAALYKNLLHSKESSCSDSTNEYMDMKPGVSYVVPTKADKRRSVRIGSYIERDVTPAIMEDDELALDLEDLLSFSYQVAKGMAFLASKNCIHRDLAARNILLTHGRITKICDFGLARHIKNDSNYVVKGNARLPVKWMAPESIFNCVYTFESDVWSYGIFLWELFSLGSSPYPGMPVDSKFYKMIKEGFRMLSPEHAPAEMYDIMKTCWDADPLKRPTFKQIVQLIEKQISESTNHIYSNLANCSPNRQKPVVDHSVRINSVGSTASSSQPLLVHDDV
T13 sequence (P10721 26-976 L576P): as the sequence (P10721 26-976 D816H) above, with L551P, H791D counted along it
T11 sequence (P07949 29-1114 V804L): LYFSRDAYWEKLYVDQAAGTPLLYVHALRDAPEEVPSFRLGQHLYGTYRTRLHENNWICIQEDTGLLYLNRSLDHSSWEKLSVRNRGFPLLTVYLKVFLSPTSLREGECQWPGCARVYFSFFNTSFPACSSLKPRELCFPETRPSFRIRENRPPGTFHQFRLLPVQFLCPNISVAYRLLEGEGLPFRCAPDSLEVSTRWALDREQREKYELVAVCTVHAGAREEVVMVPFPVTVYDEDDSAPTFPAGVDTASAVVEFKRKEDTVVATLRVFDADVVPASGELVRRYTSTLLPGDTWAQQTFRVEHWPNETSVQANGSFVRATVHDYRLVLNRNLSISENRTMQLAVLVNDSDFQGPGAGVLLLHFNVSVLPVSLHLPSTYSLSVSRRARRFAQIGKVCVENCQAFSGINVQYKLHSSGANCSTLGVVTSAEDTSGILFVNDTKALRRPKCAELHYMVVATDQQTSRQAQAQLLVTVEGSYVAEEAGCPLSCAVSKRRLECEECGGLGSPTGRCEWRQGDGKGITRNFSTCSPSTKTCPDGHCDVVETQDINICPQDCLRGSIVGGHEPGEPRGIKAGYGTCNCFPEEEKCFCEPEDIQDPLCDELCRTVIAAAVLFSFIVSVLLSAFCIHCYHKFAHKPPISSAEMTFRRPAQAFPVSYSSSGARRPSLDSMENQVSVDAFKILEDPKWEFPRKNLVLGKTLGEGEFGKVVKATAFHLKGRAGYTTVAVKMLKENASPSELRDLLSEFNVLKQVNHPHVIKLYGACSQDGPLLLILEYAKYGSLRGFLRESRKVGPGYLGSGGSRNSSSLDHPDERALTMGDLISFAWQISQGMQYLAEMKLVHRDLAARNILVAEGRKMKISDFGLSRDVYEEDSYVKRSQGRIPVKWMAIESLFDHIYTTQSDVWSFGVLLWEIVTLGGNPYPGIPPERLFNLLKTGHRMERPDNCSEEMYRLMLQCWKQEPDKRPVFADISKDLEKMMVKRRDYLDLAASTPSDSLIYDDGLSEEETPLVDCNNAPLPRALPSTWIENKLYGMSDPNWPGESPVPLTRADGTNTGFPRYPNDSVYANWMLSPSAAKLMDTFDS
T10 sequence (P07949 29-1114): as the sequence (P07949 29-1114 V804L) above, with L776V counted along it
T15 sequence (P42684 whole entry): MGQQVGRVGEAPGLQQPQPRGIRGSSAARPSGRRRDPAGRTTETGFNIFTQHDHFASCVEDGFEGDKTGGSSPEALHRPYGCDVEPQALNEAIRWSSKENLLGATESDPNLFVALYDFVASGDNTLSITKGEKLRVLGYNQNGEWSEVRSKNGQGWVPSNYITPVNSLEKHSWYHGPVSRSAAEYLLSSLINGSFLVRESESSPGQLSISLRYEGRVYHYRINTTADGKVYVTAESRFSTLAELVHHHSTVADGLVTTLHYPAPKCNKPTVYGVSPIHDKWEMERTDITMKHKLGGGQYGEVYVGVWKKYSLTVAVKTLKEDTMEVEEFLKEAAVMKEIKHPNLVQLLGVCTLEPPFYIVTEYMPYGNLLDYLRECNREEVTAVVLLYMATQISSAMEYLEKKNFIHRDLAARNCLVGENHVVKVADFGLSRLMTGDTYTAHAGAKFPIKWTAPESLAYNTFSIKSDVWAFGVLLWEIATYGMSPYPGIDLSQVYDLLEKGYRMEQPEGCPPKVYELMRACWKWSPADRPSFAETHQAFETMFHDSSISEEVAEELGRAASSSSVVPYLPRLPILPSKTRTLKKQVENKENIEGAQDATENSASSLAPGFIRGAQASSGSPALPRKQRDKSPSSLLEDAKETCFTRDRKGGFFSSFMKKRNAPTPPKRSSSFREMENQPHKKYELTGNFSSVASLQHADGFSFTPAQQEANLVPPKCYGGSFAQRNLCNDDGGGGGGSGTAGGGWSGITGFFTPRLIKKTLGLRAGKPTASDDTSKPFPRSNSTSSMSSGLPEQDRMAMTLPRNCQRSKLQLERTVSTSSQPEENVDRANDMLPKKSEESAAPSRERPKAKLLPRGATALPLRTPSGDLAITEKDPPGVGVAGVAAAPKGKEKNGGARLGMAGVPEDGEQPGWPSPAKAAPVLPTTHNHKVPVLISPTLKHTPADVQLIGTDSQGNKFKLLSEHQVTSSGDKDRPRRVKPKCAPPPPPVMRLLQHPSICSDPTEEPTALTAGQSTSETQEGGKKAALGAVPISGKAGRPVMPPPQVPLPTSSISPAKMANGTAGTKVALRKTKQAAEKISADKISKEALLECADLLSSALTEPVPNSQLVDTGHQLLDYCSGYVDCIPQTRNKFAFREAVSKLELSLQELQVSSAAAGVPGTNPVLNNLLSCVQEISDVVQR

Cc1cc2c([nH]1)/C=C1\C(=O)Nc3ccc(cc31)-c1c(C)n[nH]c1CNCCN(C)C2=O [Ex. 127, [3a(4)Z]-6,9,16-trimethyl-9,10,11,12,13,14-hexahydro-1,17-(ethanediylidene)pyrazolo[4,3-m]dipyrrolo[3,2-f:3′,4′-i][1,4]diazacyclopentadecine-3,8(2H,5H)-dione]
% Ctrl, ABL1(E255K)-phosphorylated [1]: 0.1 % Ctrl
% Ctrl, ABL1(H396P)-nonphosphorylated [2]: 0 % Ctrl
% Ctrl, ABL1(H396P)-phosphorylated [2]: 0 % Ctrl
% Ctrl, ABL1(M351T)-phosphorylated [3]: 0.2 % Ctrl
% Ctrl, ABL1(Q252H)-nonphosphorylated [4]: 0 % Ctrl
% Ctrl, ABL1(Q252H)-phosphorylated [4]: 0.05 % Ctrl
% Ctrl, ABL1(Y253F)-phosphorylated [5]: 0 % Ctrl
% Ctrl, EGFR [6]: 42 % Ctrl
% Ctrl, EGFR(G719S) [7]: 72 % Ctrl
% Ctrl, EGFR(L861Q) [8]: 73 % Ctrl
% Ctrl, EGFR(T790M) [9]: 9.2 % Ctrl
% Ctrl, RET [10]: 2 % Ctrl
% Ctrl, RET(V804L) [11]: 0.55 % Ctrl
% Ctrl, KIT(D816H) [12]: 60 % Ctrl
% Ctrl, KIT(L576P) [13]: 73 % Ctrl
% Ctrl, FLT3(D835V) [14]: 0.15 % Ctrl
% Ctrl, ABL2 [15]: 6.9 % Ctrl

Cc1cc2c([nH]1)/C=C1\C(=O)Nc3ccc(cc31)OCCOCCNC2=O [Ex. 129, [16a(17)Z]-2-methyl-6,7,9,10-tetrahydro-1H-12,14-(ethanediylidene)dipyrrolo[3,2-i:3′,4′-l][1,4,7]dioxazacyclopentadecine-4,16(5H,15H)-dione]
% Ctrl, ABL1(E255K)-phosphorylated [1]: 89 % Ctrl
% Ctrl, ABL1(H396P)-nonphosphorylated [2]: 87 % Ctrl
% Ctrl, ABL1(H396P)-phosphorylated [2]: 93 % Ctrl
% Ctrl, ABL1(M351T)-phosphorylated [3]: 83 % Ctrl
% Ctrl, ABL1(Q252H)-nonphosphorylated [4]: 87 % Ctrl
% Ctrl, ABL1(Q252H)-phosphorylated [4]: 86 % Ctrl
% Ctrl, ABL1(Y253F)-phosphorylated [5]: 98 % Ctrl
% Ctrl, EGFR [6]: 98 % Ctrl
% Ctrl, EGFR(G719S) [7]: 97 % Ctrl
% Ctrl, EGFR(L861Q) [8]: 81 % Ctrl
% Ctrl, EGFR(T790M) [9]: 100 % Ctrl
% Ctrl, RET [10]: 100 % Ctrl
% Ctrl, RET(V804L) [11]: 96 % Ctrl
% Ctrl, KIT(D816H) [12]: 96 % Ctrl
% Ctrl, KIT(L576P) [13]: 98 % Ctrl
% Ctrl, FLT3(D835V) [14]: 17 % Ctrl
% Ctrl, ABL2 [15]: 96 % Ctrl

Cc1cc2c([nH]1)/C=C1\C(=O)Nc3ccc(cc31)-c1c(noc1C)COCCN(C)C2=O [Ex. 128, [3a(4)Z]-6,9,16-trimethyl-1,11-dihydro-2H,13H-1,17-(ethanediylidene)[1,4]oxazolo[4,3-m]dipyrrolo[3,2-f:3′,4′-i][1,4]oxazacyclopentadecine-3,8(5H,9H)-dione]
% Ctrl, ABL1(E255K)-phosphorylated [1]: 25 % Ctrl
% Ctrl, ABL1(H396P)-nonphosphorylated [2]: 28 % Ctrl
% Ctrl, ABL1(H396P)-phosphorylated [2]: 51 % Ctrl
% Ctrl, ABL1(M351T)-phosphorylated [3]: 39 % Ctrl
% Ctrl, ABL1(Q252H)-nonphosphorylated [4]: 57 % Ctrl
% Ctrl, ABL1(Q252H)-phosphorylated [4]: 42 % Ctrl
% Ctrl, ABL1(Y253F)-phosphorylated [5]: 49 % Ctrl
% Ctrl, EGFR [6]: 91 % Ctrl
% Ctrl, EGFR(G719S) [7]: 97 % Ctrl
% Ctrl, EGFR(L861Q) [8]: 100 % Ctrl
% Ctrl, EGFR(T790M) [9]: 75 % Ctrl
% Ctrl, RET [10]: 83 % Ctrl
% Ctrl, RET(V804L) [11]: 56 % Ctrl
% Ctrl, KIT(D816H) [12]: 87 % Ctrl
% Ctrl, KIT(L576P) [13]: 100 % Ctrl
% Ctrl, FLT3(D835V) [14]: 1.7 % Ctrl
% Ctrl, ABL2 [15]: 91 % Ctrl
